Results reported in ChEMBL document CHEMBL1955836, “Isolation and identification of antibacterial neo-compounds from the red ants of ChangBai Mountain, Tetramorium sp” (2012).
≈ marks a conversion by molar mass, not a printed value. Calls of active or inactive are those of the source. No cut-off for these calls is given here.

How the values were obtained:
Escherichia coli = assay: Antibacterial activity against Escherichia coli O157:H7 by Kirby Bauer paper diffusion method; type: functional, organism-based
Bacillus subtilis [1] = assay: Antibacterial activity against Bacillus subtilis ATCC 6633 assessed as inhibition zone at 25 ug/mL by Kirby Bauer paper diffusion method; type: functional; conditions: read-out: DIZ
Bacillus subtilis [2] = assay: Antibacterial activity against Bacillus subtilis ATCC 6633 by Kirby Bauer paper diffusion method; type: functional
Bacillus subtilis [3] = assay: Antibacterial activity against Bacillus subtilis ATCC 6633 assessed as inhibition zone at 15 ug/mL by Kirby Bauer paper diffusion method; type: functional; conditions: read-out: DIZ
Bacillus subtilis [4] = assay: Antibacterial activity against Bacillus subtilis ATCC 6633 assessed as inhibition zone at 10 ug/mL by Kirby Bauer paper diffusion method; type: functional; conditions: read-out: DIZ

In the case of `Cc1c2oc(=O)ccc2cc2c(O)c(C(C)(C)O)oc12`, the Activity (Escherichia coli) was “inactive”, the zone of inhibition at 25 µg/mL (Bacillus subtilis [1]) was 4 mm and the MIC (Bacillus subtilis [2]) was 25 µg/mL (≈ 91.2 µM).

In the case of `O=C(NCCO)c1ccccc1`, the Activity (Escherichia coli) was “inactive”, the zone of inhibition at 15 µg/mL (Bacillus subtilis [3]) was 7 mm and the MIC (Bacillus subtilis [2]) was 15 µg/mL (≈ 90.8 µM).

In the case of `O=C1C[C@]2(C=Cc3c(c4ccccc4oc3=O)O2)CN1`, the Activity (Escherichia coli) was “inactive”, the zone of inhibition at 25 µg/mL (Bacillus subtilis [1]) was 5 mm and the MIC (Bacillus subtilis [2]) was 25 µg/mL (≈ 92.8 µM).

In the case of `CC1(C)S[C@@H]2[C@H](NC(=O)Cc3ccccc3)C(=O)N2[C@H]1C(=O)[O-].[K+]` [PENICILLIN G POTASSIUM], the zone of inhibition at 15 µg/mL (Bacillus subtilis [3]) was 20 mm, the MIC (Bacillus subtilis [2]) was 10 µg/mL and the zone of inhibition at 10 µg/mL (Bacillus subtilis [4]) was 16 mm.

`O=C(Nc1ccccc1)c1cc(O)c(O)c(O)c1` was tested, and the Activity (Escherichia coli) was “inactive”, the zone of inhibition at 25 µg/mL (Bacillus subtilis [1]) was 0 mm and the MIC (Bacillus subtilis [2]) was 25 µg/mL (≈ 102 µM).

In the case of `C#Cc1ccc(-c2c(C=O)c3ccccc3oc2=O)cc1`, the Activity (Escherichia coli) was “inactive”, the zone of inhibition at 25 µg/mL (Bacillus subtilis [1]) was 5 mm and the MIC (Bacillus subtilis [2]) was 25 µg/mL (≈ 91.1 µM).
